Assay results: the supplement of paper PMC8092582
Counter-ions that a name gives are not always drawn. ± gives the standard deviation of the averaged measurements.

Test system: HeLa
Test: cell viability (CellTiter-Glo) relative to median of lowest-dilution wells of all drugs (fraction); higher = more viable cells
Description: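 HeLa control and CRISPR DDX11 knockout cells were seeded in 384-well plates and incubated for 72 h with each of 64 […] drugs at six concentrations. Viability was read with CellTiter-Glo and normalised to the median of the lowest (6th) dilution wells of all drugs. Two biological replicates (BR1, BR2) are averaged; the concentration unit is not stated.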

[1] = drug concentration (unit not stated): 0.12, genotype: DDX11 knockout
[2] = drug concentration (unit not stated): 0.12, genotype: control (DDX11 wild type)
[3] = drug concentration (unit not stated): 0.37, genotype: DDX11 knockout
[4] = drug concentration (unit not stated): 0.37, genotype: control (DDX11 wild type)
[5] = drug concentration (unit not stated): 1.11, genotype: DDX11 knockout
[6] = drug concentration (unit not stated): 1.11, genotype: control (DDX11 wild type)
[7] = drug concentration (unit not stated): 3.33, genotype: DDX11 knockout
[8] = drug concentration (unit not stated): 3.33, genotype: control (DDX11 wild type)
[9] = drug concentration (unit not stated): 10, genotype: DDX11 knockout
[10] = drug concentration (unit not stated): 10, genotype: control (DDX11 wild type)
[11] = drug concentration (unit not stated): 30, genotype: DDX11 knockout
[12] = drug concentration (unit not stated): 30, genotype: control (DDX11 wild type)
[13] = drug concentration (unit not stated): 0.01, genotype: DDX11 knockout
[14] = drug concentration (unit not stated): 0.01, genotype: control (DDX11 wild type)
[15] = drug concentration (unit not stated): 0.04, genotype: DDX11 knockout
[16] = drug concentration (unit not stated): 0.04, genotype: control (DDX11 wild type)

SMILES | cell viability [1] | cell viability [2] | cell viability [3] | cell viability [4] | cell viability [5] | cell viability [6] | cell viability [7] | cell viability [8] | cell viability [9] | cell viability [10] | cell viability [11] | cell viability [12] | cell viability [13] | cell viability [14] | cell viability [15] | cell viability [16]
O=c1cc(-c2cccc3c2Sc2ccccc2S3)oc(N2CCOCC2)c1 | 1.06 ± 0.039 | 0.988 ± 0.017 | 1.03 ± 0.027 | 1.01 ± 0.065 | 0.9944 ± 0.005 | 0.9715 ± 0.0052 | 0.963 ± 0.023 | 0.998 ± 0.064 | 0.843 ± 0.048 | 0.951 ± 0.17 | 0.633 ± 0.053 | 0.854 ± 0.38 | – | – | – | –
COc1ncc(-c2ccc3nccc(-c4ccnnc4)c3c2)cc1NS(=O)(=O)c1ccc(F)cc1F | 0.467 ± 0.073 | 0.528 ± 0.19 | 0.33 ± 0.046 | 0.458 ± 0.18 | 0.326 ± 0.042 | 0.416 ± 0.12 | 0.304 ± 0.04 | 0.373 ± 0.12 | – | – | – | – | 0.657 ± 0.037 | 0.774 ± 0.23 | 0.57 ± 0.044 | 0.661 ± 0.17
Nc1ccn([C@@H]2O[C@H](CO)[C@@H](O)C2(F)F)c(=O)n1 [Gemcitabine HCl (Gemzar)] | 0.0501 ± 0.015 | 0.0767 ± 0.053 | 0.0439 ± 0.017 | 0.065 ± 0.04 | 0.0472 ± 0.028 | 0.0514 ± 0.028 | – | – | – | – | – | – | 0.0596 ± 0.017 | 0.0573 ± 0.021 | 0.0446 ± 0.0085 | 0.0383 ± 0.016
CC(=O)c1c(C)c2cnc(Nc3ccc(N4CCNCC4)cn3)nc2n(C2CCCC2)c1=O [Palbociclib] | 1.02 ± 0.084 | 1.017 ± 0.00052 | 1.0721 ± 0.001 | 1.01 ± 0.017 | 1.009 ± 0.0063 | 1.02 ± 0.025 | 1.03 ± 0.054 | 1.01 ± 0.022 | 0.9 ± 0.0099 | 0.986 ± 0.11 | 0.658 ± 0.045 | 0.893 ± 0.26 | – | – | – | –
Nc1nc(Cl)nc2c1ncn2[C@H]1C[C@H](O)[C@@H](CO)O1 [Cladribine] | 1.09 ± 0.077 | 1.2 ± 0.25 | 0.935 ± 0.024 | 1.06 ± 0.25 | 0.487 ± 0.34 | 0.468 ± 0.15 | 0.135 ± 0.12 | 0.103 ± 0.056 | – | – | – | – | 0.96 ± 0.03 | 0.977 ± 0.015 | 1.04 ± 0.035 | 1.04 ± 0.052
CCc1cnn2c(NCc3ccc[n+]([O-])c3)cc(N3CCCC[C@H]3CCO)nc12 [Dinaciclib] | 0.182 ± 0.011 | 0.239 ± 0.068 | 0.171 ± 0.019 | 0.264 ± 0.096 | 0.169 ± 0.0065 | 0.254 ± 0.097 | – | – | – | – | – | – | 0.119 ± 0.011 | 0.0976 ± 0.048 | 0.189 ± 0.0066 | 0.232 ± 0.063
CC(C)(C)Cn1c(N)nc2ccc(-c3[nH]c(C(C)(C)C)nc3-c3ccc(F)cc3)nc21 | 0.96 ± 0.11 | 1.03 ± 0.022 | 0.942 ± 0.088 | 0.988 ± 0.15 | 0.921 ± 0.072 | 1.02 ± 0.1 | 0.84 ± 0.03 | 1.06 ± 0.15 | 0.737 ± 0.061 | 1.03 ± 0.25 | – | – | – | – | 0.937 ± 0.044 | 0.991 ± 0.022
Nc1nc(F)nc2c1ncn2[C@@H]1O[C@H](COP(=O)(O)O)[C@@H](O)[C@@H]1O [Fludarabine Phosphate (Fludara)] | 1.03 ± 0.061 | 1.04 ± 0.012 | 1.02 ± 0.12 | 1.0367 ± 0.00023 | 1.08 ± 0.024 | 1.07 ± 0.029 | 1.06 ± 0.046 | 1.15 ± 0.028 | 1.07 ± 0.027 | 1.16 ± 0.12 | – | – | – | – | 1.0709 ± 0.00057 | 1.04 ± 0.014
Nc1ncn([C@H]2C[C@H](O)[C@@H](CO)O2)c(=O)n1 [Decitabine] | 1.01 ± 0.16 | 1.06 ± 0.019 | 1.03 ± 0.12 | 1.03 ± 0.043 | 0.973 ± 0.012 | 1.05 ± 0.054 | 0.975 ± 0.099 | 1.1 ± 0.097 | 0.867 ± 0.018 | 1.11 ± 0.086 | – | – | – | – | 1.062 ± 0.0019 | 1.0513 ± 0.0006
NC(=O)Nc1cc(-c2cccc(F)c2)sc1C(=O)N[C@H]1CCCNC1 [AZD7762] | 0.992 ± 0.051 | 0.959 ± 0.023 | 0.819 ± 0.055 | 0.896 ± 0.16 | 0.36 ± 0.022 | 0.647 ± 0.3 | 0.142 ± 0.014 | 0.299 ± 0.12 | – | – | – | – | 1.08 ± 0.072 | 1.02 ± 0.025 | 1.011 ± 0.0048 | 1.04 ± 0.043
